Source: patent publication US5908868A, “Retinol derivatives useful for enhancing immune response” (priority 1995, dated 1999)
Entries after “also recorded” stand apart in the source; their conditions may differ.

Legend:
[1] = test system: 5/2 cells; assay: Growth (DNA synthesis, [3H]thymidine) of lymphoblastoid 5/2 cells in serum-free medium; type: cell-based, human; conditions: for restoration of capacity to proliferate: ITLB medium without retinol
Procedure: Washed 5/2 cells (5,000/well) were incubated for 72 hours in HB101 medium with the indicated amounts of retinoids. DNA synthesis was measured by [^3 H] thymidine uptake. The measurements were done in triplicate. The SDs were <15%.
In FIGS. 4B to 4D, 5/2 cells were washed twice and seeded at a concentration of 150,000 cells/ml in HB 101 medium. Triplicate samples of 100 μl of cell suspension were removed daily and pulsed for 6 hours with [^3 H] thymidine. Means are shown. The SDs were never >20%.
P3 was purified as described in the Experimental Details section. 5/2 cells (5,000/well) were incubated for 72 hours in HB101 medium and refed with the indicated amount of retinoid daily. DNA synthesis was measured by [^3 H]-thymidine uptake. P3 is bioactive down to a concentration of 10-^8 M (FIG. 8). […] This is due either to chemical instability or to a more rapid metabolic degradation of P3 by the cells.
The assay was done in 96-well microtiter plates in a final volume of 200 ul/well. The cells were cultured for 72 hours and cell growth determined by [^3 H] thymidine (0.8 μCi/well)labeling for the last 16 hours. Retinoids were added at the indicated concentrations at the initiation of culture and every 24 hours thereafter.
The human EBV-transformed B-cell line 5/2 was established from the peripheral blood of a healthy donor. The cell line was grown in RPMI 1640 supplemented with 8% fetal calf serum, L-glutamine (2 mM), and antibiotics. The cell line was tested regularly for mycoplasma infections and was consistently negative.
The assay system is a modification of the assay developed by Blazar et al. (12). […] Assays were done in 96 well microtiter plates in a final volume of 200 μl/well or in 25 cm^2 tissue culture flasks. The cells in the microtiter plates were cultured for 72 hours and cell growth was determined by labeling for the last 16 hours with 0.8 μCi/well of [^3 H]thymidine (sp. act. 6.7 Ci/mmol). Growth in the culture flasks was determined in three aliquots of 100 μl taken at 24 hours intervals and cultured in the presence of 0.8 μCi of [^3 H]thymidine for an additional 6 hour period. To determine the viable cell number, nine aliquots per time point were differentially counted in a Neubauer chamber in the presence of trypan blue.
5/2 cells were grown in the absence of retinol in a medium containing the basic RPMI 1640 amino acid/salt mixture, insulin (5 μg/ml), transferrin (5 μg/ml), albumin (0.1%) and linoleic acid (10^-6 M) (ITLB). […] The dose-response curve shown in FIG. 26 indicates an effective concentration of 10^-7 M.

[2] = test system: thymocytes; assay: Proliferation of anti-CD3e activated thymocytes in serum-free medium; type: cell-based, BALB/c mouse; conditions: for proliferative response: anti-CD3, retinol 3×10^-6 M or 14HRR 6×10^-7 M; for growth over a four day period: retinol 3×10^-6 M, 14HRR 6×10^-7 M, human serum 3%
Procedure: FIG. 14A: Purified BALB/c thymocytes were activated with immobilized anti-CD3e antibody and cultivated for four days in ITLB medium with or without retinol (3×10^-6 M), 14HRR (6×10^-7 M) (fresh 14HRR was added every 12 hours), human serum (3%) or FCS (10%) at the cellular densities shown. Proliferation was assayed by tritiated thymidine incorporation into cellular DNA. The SDs were below 20%.
FIG. 14B: BALB/c thymocytes (10^6 /ml) were added to microtiter plates coated with titrated amounts of anti-CD3e antibody with […] retinol or without, as indicated. Proliferation was measured in hexaduplicate wells on day 3 by ^3 H thymidine incorporation assay.
FIG. 14C: BALB/c thymocytes (3×10^6 /ml) were activated with anti-CD3e mAb as FIG. 1A. The total number of viable cells was determined by counting trypan blue-excluding cells, and those of blast cells by counting viable large cells in six replicate wells. Because of the relatively low cell density required in the culture (see FIG. 14A), the numbers reported for blast cells are best estimates.
Purified thymocytes (5×10^5 cells/well) were stimulated by TCR crosslinking with immobilized anti-CD3e antibody (FIG. 15A) or 0.4 μg/ml Con A (FIG. 15B) in serum-free ITLB medium. The indicated amounts of retinoids were added either once at the beginning of the experiment (marked as "1x") or every 12 hours thereafter (marked as "6x"). DNA synthesis was measured after 72 hours by tritiated thymidine uptake as described.
Purified thymocytes (10^5 cells/well) were activated with anti-CD3 antibody in ITLB medium with or without retinol (3×10^-6 M), 14HRR (6×10^-7, added every 12 hours or human serum (3%)). DNA synthesis was measured daily by a 4 hour pulse of tritiated thymidine. SDs were ≤12%.
Thymocytes (5×10^4 /well) were activated by immobilized anti-CD3 mAb in medium ITLB. Retinol (2×10^-6 M) was added at initiation of culture, or delayed by 12 hours and 24 hours, respectively, or omitted altogether. ^3 H thymidine pulses of 4 hours were used to measure DNA synthesis of hexaduplicate wells. (SDs were 20% or less.)
Thymuses of 3 to 6-week-old BALB/c mice were teased in serum-free RPMI medium supplemented with 1% BSA, 10^-6 M linoleic acid and antibiotics. Depletion of accessory cells was achieved by two cycles of complement-dependent lysis with a mixture of anti-IA^d (5 μg/ml) and anti-Itd (1:500 diluted ascites fluid). Briefly, cells were incubated on ice for 30 minutes with Ia antibodies, spun down, resuspended in 1:40 diluted rabbit complement, and incubated at 37° C. for 45 minutes. Incubations and two subsequent washes were carried out with RPMI medium containing 1% BSA. Cell viability was evaluated by trypan blue dye exclusion. To determine the extent of depletion of accessory cells, samples were stained with FITC-conjugated anti-Fc receptor antibody and analyzed by flow cytometry on a FACScan instrument (Becton Dickinson). No FcR-bearing cells were detected by this procedure.
Cells were cultured in serum-free medium, referred to as ITLB, containing RPMI 1640 supplemented with 8×10^-7 M insulin (5 μg/ml), 7×10^-8 M transferrin (5 μg/ml), 2×10^-6 M linoleic acid, 2×10^-6 M delipidated BSA (0.12 mg/ml), 2 mM L-glutamine, 1 mM sodium pyruvate and antibiotics. They were seeded into 96-well flat-bottom plates at varying cellular densities in a final volume of 100 μl. In control experiments, cells were cultured in medium containing 10% FCS or 3% human serum and 5×10^-5 M 2 ME. T cells and thymocytes were activated with immobilized, purified anti-mab CD3e or by the addition of Con A in the presence or absence of different concentrations of retinoids. Unless indicated otherwise, retinoids were replenished every 12 hours to maintain a reasonably constant concentration of these labile compounds in culture. […]

Row | Structure (SMILES) | support of 5/2 cell growth ([1]; HB101 medium) | minimal effective concentration ([1]; Homo sapiens, 72 h, HB101 medium, refed daily, read-out: bioactive down to a concentration) | restoration of capacity to proliferate [1] | need to replenish cultures ([1]; chemical instability or more rapid metabolic degradation) | proliferative response [2] | potency relative to retinol in supporting T cell proliferation ([2]; provided at 12 hour intervals) | growth over a four day period [2] | effect of a single addition at initiation of culture ([2]; single addition) | response when supplied together with activation signal ([2]; no delay) | reduction of sufficient retinol concentration on repeated feeding ([2]; replenished twice daily, 3-day culture) | viability ([2]; retinol by itself) | effect of 12-hour delay in addition ([2]; retinol delayed 12 hours) | effect of delayed addition ([2]; retinol delayed by 24 hours) | T cell activation ([2]; retinol on its own)
1 | CC(C=CC=C(C)C(O)CO)=CC=C1C(C)=CCCC1(C)C (stereo not drawn) [14HRR, 14-hydroxy-4,14-retro-retinol] | active and capable of replacing retinol | 0.01 µM | restores the capacity to proliferate | cultures have to be replenished daily | vigorous responses were elicited | as potent as retinol | exponential growth | ineffective; also recorded: does not enable sustained proliferation; also recorded: insufficient to drive T cell proliferation |  |  |  |  |  | 
2 | CC1=C(/C=C/C(C)=C/C=C/C(C)=C/CO)C(C)(C)CCC1 [retinol, all-trans retinol] | enable 5/2 cells to grow |  | restores the capacity to proliferate |  | vigorous responses were elicited |  | exponential growth |  | highest responses | five- to ten-fold lower | maintain a higher state of viability than anti-CD3e "only" stimulation, or omission of test reagents altogether | stagnation | complete failure of activation | no discernible T cell activation
